A word on the Ki: it is a measure of affinity in units of concentration, obtained from inhibition or displacement.

Our source for the Ki values is patent US6706747B2, “Conformationally rigid bicyclic and adamantane derivatives useful as α2-adrenergic blocking agents” (Allergan, Inc., priority 1994, dated 2004).

This experiment concerns the target T1, HT-29(α2A) (Homo sapiens, UniProt P08913).
T1 construct: HT-29 and chinese hamster ovary (CHO) cells expressing the human α2A (CHO—C10) receptor; endogenous in cells; host or cells: HT-29
T1 sequence (P08913 1-465): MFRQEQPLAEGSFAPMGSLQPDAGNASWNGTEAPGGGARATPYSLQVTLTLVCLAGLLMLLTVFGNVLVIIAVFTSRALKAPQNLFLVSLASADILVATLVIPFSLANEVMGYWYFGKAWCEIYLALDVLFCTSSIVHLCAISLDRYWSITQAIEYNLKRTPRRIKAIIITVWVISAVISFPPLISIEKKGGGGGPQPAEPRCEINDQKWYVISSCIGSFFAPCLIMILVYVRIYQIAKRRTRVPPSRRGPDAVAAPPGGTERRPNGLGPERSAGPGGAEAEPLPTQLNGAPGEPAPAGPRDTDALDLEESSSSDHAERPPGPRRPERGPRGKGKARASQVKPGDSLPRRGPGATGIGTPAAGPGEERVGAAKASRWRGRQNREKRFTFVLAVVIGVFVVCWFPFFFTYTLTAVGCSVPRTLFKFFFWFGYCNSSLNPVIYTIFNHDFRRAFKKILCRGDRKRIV
Put plainly: Radioligand binding, [3H]rauwolscine, HT-29 cell membranes. Conditions: values marked *: HT-29 cells, 22° C., 30 minutes. As for the experimental part:
Cell preparation: HT-29 and chinese hamster ovary (CHO) cells expressing the human α2A (CHO—C10) receptor and CHO cells (CHO—RNG) expressing the rat α2B adrenoceptor were grown to near confluency in Dulbecco's modified Eagle's medium supplemented with 10% fetal bovine serum using standard cell culture methods. Cells were harvested by scraping and placed into cold buffer of the following composition: 50 mM Tris-HCl, 5 mM EDTA, pH 7.4). Cells were then homogenized with a Polytron homogenizer for 2×10 secs at setting # 7, arid centrifuged for 20 minutes at 49,000×g. The pellet fraction was washed (resuspended in Tris-HCl, pH 8 buffer and centrifuged for 15-20 minutes at 49,000×g) 2 times and stored at −100° C. until binding assay.
Binding studies: The radioligands [^3H]rauwolscine (specific activity 80 Ci/mmol) and [^3H]prazosin (specific activity 76 Ci/mmol) were obtained from New England Nuclear, Boston, Mass. Frozen membrane pellet was resuspended in 25 mM glycine/glycine, pH 7.4 and incubated with radioligand under the following conditions: CHO—C10, CHO—RNG, HT-29-[^3H]rauwolscine, 22° C., 30 minutes; RKC-[^3H]rauwolscine, 0° C., 120 minutes; and, HCC-[^3H]prazosin, 22° C., 30 minutes in a final volume of 500 μl. At the end of the incubation period, the samples were filtered through glass fiber filters (Whatman GF/B) in a 96 well cell harvester and rapidly washed four times with 4 ml of ice-cold 50 mM, Tris-HCl buffer. The filters were then oven dried and transferred to scintillation vials containing 5 ml of Beckman's Ready Protein® scintillation cocktail for counting. Specific binding defined by 10 μM phentolamine for competition studies were as follows: 0.3 nM [^3H]rauwolscine—CHO—C10 99%; 0.4 nM[^3H]rauwolscine —CHO—RNG 99%; 0.7;nM [^3H]rauwolscine—HT-29 90%; 1 nm [^3]rauwolscine—RKC 92%, and 0.3 nM [^3H]prazosin—HCC 87%. Protein concentrations were determined with a protein assay kit from Bio Rad. Binding isotherms, equilibrium dissociation and affinity constants were analyzed and determined by the non-linear least squares curve fitting programs AccuFit Competition/Saturation by Beckman.
Binding studies: The radioligands [^3H]rauwolscine (specific activity 80 Ci/mmol), [^3H]prazosin (specific activity 76 Ci/mmol) and [^3H]brimonidine (UK-14,304; specific activity 63 Ci/mmol) were obtained from New England Nuclear, Boston, Mass. Frozen membrane pellet was resuspended either 50 mM tris, 2 mM EGTA, 1 mM MgCl2, pH7.5 (RbKC, RbICB-[^3H]brimonidine); 50 mM tris, 0.5 mM EDTA, 5 mM NaCl, pH 7.7 (RbICB-[^3H]rauwolscine); 25 mM glycine/glycine, pH 7.4 (RtKC, CHO—C10, CH—RNG, HT-29, HCC) or 50 mM tris, 0.1 mM MnCl2, pH7.7 (RtCC). Membrane protein homogenate (75-200 μg) was incubated with radioligand under the following conditions: RbKC and RbICB-[^3H]rauwolscine, 22° C., 45 minutes; RtCC and RbICB-[^3H]brimondine, 22° C., 90 minutes; CHO—C10, CHO—RNG and HT-29-[^3H]rauwolscine, 22° C., 30 minutes; HCC—[^3H]prazosin, 22° C., 30 minutes; and, in a final volume of 250 or 500 μl. At the end of the incubation period, the samples were filtered through glass fiber filters (Whatman GF/B) in a 24 or 96 well cell harvester and rapidly washed four times with 4 mls of iced-cold 50 mM Tris-HCl buffer. The filters were then oven dried and transferred to scintillation vials containing 10 mls of, Beckman's Ready Protein® scintillation cocktail for counting. […] Protein concentrations were determined with a protein assay kit from Bio Rad. […]

The compound `CCCCNC1=NCCO1` had a Ki of 150 nM.
`CC(C)C1C2CCC(C2)C1NC1=NCCO1` (centres unmarked) gave a Ki of 43 nM.
The compound `CCCCC1C2CCC(C2)C1NC1=NCCO1` (centres unmarked) displayed a Ki of 29 nM. The Ki values of the last two compounds are within 1.5-fold of each other.
To `CCCCC1C2CCC(C2)C1NC1=NCCS1` (centres unmarked) belongs 58 nM; to `C1CCC(C2C3CCC(C3)C2NC2=NCCN2)CC1` (centres unmarked), 288 nM.
